Results as given in patent publication US10172816B2, “Method of treating chronic obstructive pulmonary disease (CPD) with verproside” (YUNGJIN PHARMACEUTICAL CO., LTD, priority 2013, dated 2019).

Key:
[1] = test system: Mucin 5A/C; assay: Acrolein-induced Mucin 5A/C expression in A549 cells (RT-PCR); assay type: cell-based, human; conditions: pre-treated 1 hour, then 30 nM acrolein, dose dependent
Description: The diluted A549 cell line (ATCC, CCL-185) with DMEM medium supplemented with 5% phenol red and FBS (Fetal Bovine Serum) was seeded in 6 well plates (4×10^5 cells/well) to adhere thereto for a night, and 20 and 40 microgram/ml of ATC2 extract were treated with A549 cell line for 1 hours. 30 nM acrolein was treated therewith to induce Mucin 5A/C expression. The medium was removed the cell, washed with PBS solution and homogenized with Trizol (Invitrogen, CA, USA) for the isolation of ribonucleic acids from the cells for 5 mins. the cells were collected, transferred to centrifugal separator, completely mixed with chloroform for 15 seconds, left alone for 3 mins and centrifuged for 15 mins at the speed of 14,000 rpm. The supernatant containing ribonucleic acid was transferred to new tube and mixed with isopropylalcohol for 10 mins. The solution was centrifuged to discard the supernatant and 75% ethanol was added to the precipitate. The precipitate was centrifuged for 5 mins at the speed of 10,000 rpm and the supernatant was discarded. The precipitated ribonucleic acid was dried at room temperature for 20 mins. […] After the quantification of ribonucleic acid, the complementary DNA was synthesized using by 1 microgram of RNA and RT-kit (Omniscript RT kit, Qiagen, USA) and the synthetic cDNA was used as a template. […]

[2] = test system: MIP-2/CXCL-2; assay: COPD mouse model (LPS+CS): MIP-2/CXCL-2 in BALF by ELISA; assay type: in vivo, BALB/c mice; conditions: 15 mg/kg, p.o.
[3] = test system: MMP-9; assay: COPD rat model: MMP-9 activity in lung tissue (gelatin zymography); assay type: in vivo, Sprague-Dawley rat; conditions: ATC2 and Verproside 30 mg/kg, p.o.; level similar to Daxas group
Description: The exposure of cigarette smoke was performed by using a cigarette smoke generator (CH Technology Corp. USA). In a detail, 1 hour after the orally administration of test samples using by Head/nose-only exposure unit (TSE System, German) according to nose-only method, the cigarette smoke was exposed by inhalation for 3 days every hour. 8 puffs (volume 35 ml, duration 2 sec, interval 1 time/min) per one piece of standard cigarette was performed in the experiment. […]
The lung tissue of rat was homogenized with Tissue lysis buffer (C3228, Sigma-Aldrich, USA) treated with a protease inhibitor (11836153001, Roche, Germany) and the homogenized lung tissue was centrifuged at 12000 rpm for 10 mins to isolate the supernatant. The protein assay reagent (500-0006, Bio-Rad, USA) was used to quantification. […] The density of MMP-9 band was determined using by Chemi-doc (170-8070, Bio-Rad, USA) to determine the activity of MMP-9.

Structure (SMILES): O=C(O[C@H]1[C@@H]2C=CO[C@@H](O[C@@H]3O[C@H](CO)[C@@H](O)[C@H](O)[C@H]3O)[C@@H]2[C@@]2(CO)O[C@@H]12)c1ccc(O)c(O)c1 [verproside, 6-O-(3,4-dihydroxybenzoyl) catalpol]
- expression of Mucin 5A/C (mRNA, RT-PCR) [1]: inhibited
- reduction of chemokines MIP-2/CXCL-2 in BALF compared with control group [2]: more than 63.0%
- activity of MMP-9 in lung tissue [3]: remarkably reduced activity
